Patent publication US12258337B2, “Bicyclic CX3CR1 receptor agonists” (Board of Regents, The University of Texas System, priority 2019, dated 2025)
pEC50: −log10 of the molar value.

Columns and labels:
Format in all cases: cell-based
mCX3CR1 = molecular target: T1, mCX3CR1 (Mus musculus, UniProt Q9Z0D9); assay: Ga16 assay, CX3CR1 agonism, Ca2+ sensitive photo-protein readout (FLIPRTETRA); conditions: mouse CX3CR1 cell line
T1 construct: expressed in transfected cells; stably expresses a Ca2+ sensitive photo-protein
T1 sequence (Q9Z0D9 1-354): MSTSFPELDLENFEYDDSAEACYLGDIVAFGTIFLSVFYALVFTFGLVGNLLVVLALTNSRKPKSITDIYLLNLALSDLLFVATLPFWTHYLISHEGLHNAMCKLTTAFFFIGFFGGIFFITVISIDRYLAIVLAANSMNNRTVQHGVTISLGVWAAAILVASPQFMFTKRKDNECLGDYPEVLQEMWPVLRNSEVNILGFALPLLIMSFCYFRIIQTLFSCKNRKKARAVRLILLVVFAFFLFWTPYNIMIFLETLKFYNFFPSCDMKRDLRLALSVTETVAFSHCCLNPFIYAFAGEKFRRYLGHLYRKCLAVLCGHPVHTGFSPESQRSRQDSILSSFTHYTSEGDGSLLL
Description: (§1) Compounds (as well as stereoisomer(s) thereof and/or salt(s) thereof) were tested for CX3CR1 agonism in a cell based assay with fluorescent readout in Agonist Mode in dose response in quadruplicate with intra-plate modality).
(§2) Buffers and reagents. PBS (D-PBS without calcium and magnesium; EuroClone); Trypsin (Trypsin 0.05%, EDTA 0.02% in PBS; EuroClone); DMSO (Sigma); Standard tyrode buffer: in-house solution (130 mM NaCl, 5 mM KCl, 2 mM CaCl2), 1 mM MgCl2, 5 mM NaHCO3, 20 mM HEPES in water at pH 7.4; sterile filtered); Coelenterazine, native (Biosynth); stock 10 mM; Agonist: Recombinant Human Fractalkine (CX3CL1) (PeproTech); stock: 10 μM in standard tyrode buffer+BSA 0.1%; stored at −20° C.
(§3) Cell line. Human (hCX3CR1), mouse (mCX3CR1), and rat (rCX3CR1) were used for the assay.
(§4) Assay protocol. Experiments ere performed in 384 MTP format. Cells were seeded at 7,500 cells/well in 25 μl/well complete growth medium without selection antibiotics in 384-well plates. Twenty-four hours later, cells ere assayed for the response to various compounds using the Ca^2+ sensitive photo-protein stably expressed in the cells as readout.
(§5) The experiment was performed in a 384-well format according to the following procedure: • 24h after seeding, pre-incubate the cells at room temperature for 1 hour. • Then remove the culture medium. • Load cells with 20 μL/well of standard tyrode buffer+10 μM ceolenterazine. • Incubate cell plates for 3 hours at RT. • Inject 10 μL/w of 3× concentrated test compounds and controls in assay buffer at the FLIPRTETRA and monitor the kinetic response over a period of 90 seconds.
(§6) Data from FLIPRTETRA measurements were analyzed with the Genedata Screener© software. The following examples are meant to illustrate, but in no way to limit, the claimed invention.

rCX3CR1 = molecular target: T2, rCX3CR1 (Rattus norvegicus, UniProt P35411); assay: as above; conditions: rat CX3CR1 cell line
T2 construct: expressed in transfected cells; stably expresses a Ca2+ sensitive photo-protein
T2 sequence (P35411 1-354): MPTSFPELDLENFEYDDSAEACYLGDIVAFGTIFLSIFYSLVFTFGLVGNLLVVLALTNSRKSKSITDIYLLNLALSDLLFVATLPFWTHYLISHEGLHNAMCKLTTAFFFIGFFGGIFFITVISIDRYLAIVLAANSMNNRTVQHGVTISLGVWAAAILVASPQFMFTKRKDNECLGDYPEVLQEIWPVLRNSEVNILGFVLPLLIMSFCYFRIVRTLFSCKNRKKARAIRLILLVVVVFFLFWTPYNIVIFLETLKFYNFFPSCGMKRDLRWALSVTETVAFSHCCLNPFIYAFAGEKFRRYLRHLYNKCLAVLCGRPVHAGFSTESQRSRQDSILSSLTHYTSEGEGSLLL
Description: as §1, §2, §3, §4, §5, §6

hCX3CR1 [1] = molecular target: T3, hCX3CR1 (Homo sapiens, UniProt P49238); assay: as above; parameters: expressed in transfected cells; stably expresses a Ca2+ sensitive photo-protein; conditions: human CX3CR1 cell line
T3 sequence (P49238 1-355): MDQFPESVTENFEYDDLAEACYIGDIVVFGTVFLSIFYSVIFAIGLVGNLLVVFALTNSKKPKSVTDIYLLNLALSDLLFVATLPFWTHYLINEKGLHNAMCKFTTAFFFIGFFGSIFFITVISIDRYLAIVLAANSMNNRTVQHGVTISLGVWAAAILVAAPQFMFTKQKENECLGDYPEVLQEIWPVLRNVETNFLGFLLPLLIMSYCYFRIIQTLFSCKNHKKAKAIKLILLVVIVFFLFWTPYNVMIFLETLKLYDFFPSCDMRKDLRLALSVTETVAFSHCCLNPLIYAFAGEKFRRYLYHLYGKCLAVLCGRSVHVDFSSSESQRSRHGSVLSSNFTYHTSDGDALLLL
Description: as §1, §2, §3, §4, §5, §6

hCX3CR1 [2] = molecular target: T3, hCX3CR1; assay: Suchi5 assay (HEK/NatClytin/CNG/Suchi5 transiently transfected hCX3CR1, Fluo-8 Ca2+ readout); parameters: expressed in transfected cells; stably expresses a Ca2+ sensitive photo-protein; conditions: Suchi5 assay, HEK/NatClytin/CNG/Suchi5 transfected with hCX3CR1; read-out: hCX3CR1 agonism EC50
Description: Buffers and reagents. PBS (D-PBS without calcium and magnesium; EuroClone); Trypsin (Trypsin 0.05%, EDTA 0.02% in PBS; EuroClone); Opti-MEM medium (Thermo Fisher); DMSO (Sigma); Standard tyrode buffer: in-house solution (130 mM NaCl, 5 mM KCl, 2 mM CaCl2), 1 mM MgCl2, 5 mM NaHCO3, 20 mM HEPES in water at pH 7.4; sterile filtered); Screen Quest™ Fluo-8 No Wash Calcium Assay Kit (AAt Bioquest®); Lipofectamine® 2000 Reagent (Thermo Fisher); Agonist: Recombinant Human Fractalkine (CX3CL1) (PeproTech); stock: 10 μM in standard Tyrode buffer/BSA 01%; stored at −20° C.
Cell line. The final cell line for CX3CR1-Suchi5 assay is HEK/NatClytin/CNG/Suchi5 transiently transfected hCX3CR1 cDNA. In this cell line native Gαi signaling is switched to Gαq pathway thanks to the overexpression of a Gαiq chimeric G protein (called Suchi5) to direct Gαi activation towards Ca^2+ release for measurement.
Assay protocol. Experiments are performed in 384 MTP format. Transiently transfected cells are seeded at 20,000 cells/well in 25 μl/well Opti-MEM medium without selection antibiotics in 384-well plates. 4-5-hours later 25 μL/well of complete medium with 20% of FBS are added to the cells. Twenty-four hours later, cells are assayed for the response to various compounds using a fluorescent Ca^2+ sensitive dye (FLUO8-No Wash Dye) as readout.
The experiment is performed in a 384-well format according to the following procedure: • 24h after seeding, remove the culture medium. • Load cells with 20 μL/well of 0.5X FLUO-8 No Wash Dye diluted in assay buffer. • Incubate cell plates for 1 hour at RT. • Inject 10 μL/w of 3× concentrated test compounds and controls in assay buffer at the FLIPRTETRA and monitor the kinetic response over a period of 90 seconds.
Data from FLIPRTETRA measurements are analyzed with the Genedata Screener© software.

Row | Compound | pEC50 (mCX3CR1) | pEC50 (rCX3CR1) | pEC50 (hCX3CR1 [1]) | pEC50 (hCX3CR1 [2])
1 | COC1CCN(CC2(CNC(=O)c3cc4c(s3)CCCCCC4)CCC2)CC1 [Example 49, N-[[1-[(4-methoxypiperidin-1-yl)methyl]cyclobutyl]methyl]-4,5,6,7,8,9-hexahydrocycloocta[b]thiophene-2-carboxamide] | 5.06 | 5.18 | 5.00 | 5.05
2 | CC1CCCC1(CNC(=O)c1cc2c(s1)CCCCCC2)CN(C)C (single isomer, unassigned) [Example 61, N-[[1-[(dimethylamino)methyl]-2-methylcyclopentyl]methyl]-4,5,6,7,8,9-hexahydrocycloocta[b]thiophene-2-carboxamide] | 4.47 | 4.82 | 4.87 | 5.17
3 | CN(C)CC1(CNC(=O)c2cc3c(s2)CCCCCC3)CC(F)(F)C1 [Example 56, N-[[1-[(dimethylamino)methyl]-3,3-difluorocyclobutyl]methyl]-4,5,6,7,8,9-hexahydrocycloocta[b]thiophene-2-carboxamide] | 4.60 | 4.62 | 4.73 | 5.02
4 | O=C(NCC1(CN2CCC(O)CC2)CCC1)c1cc2c(s1)CCCCCC2 [Example 41, N-[[1-[(4-hydroxypiperidin-1-yl)methyl]cyclobutyl]methyl]-4,5,6,7,8,9-hexahydrocycloocta[b]thiophene-2-carboxamide] | 5.03 | 5.13 | 5.07 | 5.60
5 | O=C(NCC1(CN2CCC(O)C2)CCCC1)c1cc2c(s1)CCCCCC2 (single isomer, unassigned) [Example 64, N-[[1-[(3-hydroxypyrrolidin-1-yl)methyl]cyclopentyl]methyl]-4,5,6,7,8,9-hexahydrocycloocta[b]thiophene-2-carboxamide] | 4.86 | 5.04 | 4.99 | 5.06
6 | CC(C)OC1CCCN(CC2(CNC(=O)c3cc4c(s3)CCCCCC4)CCC2)C1 (centres unmarked) [Example 50, N-[[1-[(3-propan-2-yloxypiperidin-1-yl)methyl]cyclobutyl]methyl]-4,5,6,7,8,9-hexahydrocycloocta[b]thiophene-2-carboxamide] | 4.34 | 4.36 | 4.80 | 4.79

Results, then the compound that gave them:

Row | pEC50 (mCX3CR1) | pEC50 (rCX3CR1) | pEC50 (hCX3CR1 [1]) | pEC50 (hCX3CR1 [2]) | Compound
7 | 4.28 | 4.70 | 4.96 | 4.93 | CC(C)(CNC(=O)c1cc2c(s1)CCCCCC2)CN1CCCC(O)C1 (centres unmarked) [Example 46, N-[3-(3-hydroxypiperidin-1-yl)-2,2-dimethylpropyl]-4,5,6,7,8,9-hexahydrocycloocta[b]thiophene-2-carboxamide]
8 | 4.06 | 4.10 | 4.74 | 4.84 | CC(C)(CNC(=O)c1cc2c(s1)CCCCCC2)CN1CCC(C)(O)CC1 [Example 67, N-[3-(4-hydroxy-4-methylpiperidin-1-yl)-2,2-dimethylpropyl]-4,5,6,7,8,9-hexahydrocycloocta[b]thiophene-2-carboxamide]
9 | 4.60 | 4.71 | 4.71 | 5.08 | CC1(O)CCCN(CC2(CNC(=O)c3cc4c(s3)CCCCCC4)CCCC2)C1 (centres unmarked) [Example 52, N-[[1-[(3-hydroxy-3-methylpiperidin-1-yl)methyl]cyclopentyl]methyl]-4,5,6,7,8,9-hexahydrocycloocta[b]thiophene-2-carboxamide]
10 | 4.15 | 4.70 | 4.90 | 4.79 | COC1CCN(CC(C)(C)CNC(=O)c2cc3c(s2)CCCCCC3)CC1 [Example 47, N-[3-(4-methoxypiperidin-1-yl)-2,2-dimethylpropyl]-4,5,6,7,8,9-hexahydrocycloocta[b]thiophene-2-carboxamide]
11 | 5.05 | 5.04 | 4.92 | 6.00 | CC1(O)CCCN(CC2(CNC(=O)c3cc4c(s3)CCCCCC4)CCC2)C1 (centres unmarked) [Example 59, N-[[1-[(3-hydroxy-3-methylpiperidin-1-yl)methyl]cyclobutyl]methyl]-4,5,6,7,8,9-hexahydrocycloocta[b]thiophene-2-carboxamide]
